Laboratory results as given in ChEMBL document CHEMBL5625164, “Design, synthesis, and evaluation of new anti-inflammatory natural products amide derivatives endowed with anti-blood cancer activity towards development of potential multifunctional agents against hematological cancers” (Eur J Med Chem, 2023).
Active and inactive are the calls of the source. The rule behind the calls is not given here.

Columns and labels:
[1] = tested on: BV-2; assay: Anti-inflammatory activity against mouse BV-2 cells assessed as inhibition of LPS-induced NO production at 10 uM pretreated for 2 hrs followed stimulated with LPS for 22 hrs by Griess reaction assay relative to control; format: functional; settings: time 24 hrs
[2] = Cytotoxicity against mouse RAW264.7 cells assessed as macrophage viability at 10 uM relative to control; format: toxicity, cell-based; settings: read-out: Activity
[3] = tested on: BV-2; assay: Anti-inflammatory activity against mouse BV-2 cells assessed as inhibition of LPS-induced TNFalpha production pretreated for 2 hrs followed stimulated with LPS for 22 hrs at 10 uM relative to control; format: functional; settings: time 24 hrs
[4] = tested on: CCRF-CEM; assay: Anticancer activity against human CCRF-CEM cells assessed as growth inhibition at 10 uM measured after 48 hrs by SRB assay relative to control; format: functional; settings: read-out: GI
[5] = tested on: MOLT-4; assay: Anticancer activity against human MOLT-4 cells assessed as growth inhibition at 10 uM measured after 48 hrs by SRB assay relative to control; format: functional; settings: read-out: GI
[6] = tested on: BV-2; assay: Anti-inflammatory activity against mouse BV-2 cells assessed as inhibition of LPS-induced NO production pretreated for 2 hrs followed stimulated with LPS for 22 hrs by Griess reaction assay; format: functional, cell-based
[7] = tested on: RPMI-8226; assay: Anticancer activity against human RPMI-8226 cells assessed as growth inhibition at 10 uM measured after 48 hrs by SRB assay relative to control; format: functional; settings: read-out: GI
[8] = tested on: SR; assay: Anticancer activity against human SR cells assessed as growth inhibition at 10 uM measured after 48 hrs by SRB assay relative to control; format: functional; settings: read-out: GI
[9] = tested on: BV-2; assay: Anti-inflammatory activity against mouse BV-2 cells assessed as inhibition of LPS-induced TNFalpha production pretreated for 2 hrs followed stimulated with LPS for 22 hrs; format: functional, cell-based
[10] = tested on: BV-2; assay: Anti-inflammatory activity against mouse BV-2 cells assessed as inhibition of LPS-induced PGE2 production pretreated for 2 hrs followed stimulated with LPS for 22 hrs; format: functional, cell-based
[11] = tested on: K562; assay: Anticancer activity against human K562 cells assessed as growth inhibition at 10 uM measured after 48 hrs by SRB assay relative to control; format: functional; settings: read-out: GI
[12] = tested on: BV-2; assay: Anti-inflammatory activity against mouse BV-2 cells assessed as inhibition of LPS-induced PGE2 production pretreated for 2 hrs followed stimulated with LPS for 22 hrs at 10 uM relative to control; format: functional; settings: time 24 hrs
[13] = tested on: HL-60; assay: Anticancer activity against human HL-60 cells assessed as growth inhibition at 10 uM measured after 48 hrs by SRB assay relative to control; format: functional; settings: for inhibition of growth at 10 µM: read-out: GI
[14] = tested on: HL-60; assay: Anticancer activity against human HL-60 cells assessed as growth inhibition measured after 48 hrs by SRB assay relative to control; format: functional
[15] = tested on: SR; assay: Anticancer activity against human SR cells assessed as growth inhibition measured after 48 hrs by SRB assay relative to control; format: functional
[16] = tested on: MOLT-4; assay: Anticancer activity against human MOLT-4 cells assessed as growth inhibition measured after 48 hrs by SRB assay relative to control; format: functional
[17] = tested on: K562; assay: Anticancer activity against human K562 cells assessed as growth inhibition measured after 48 hrs by SRB assay relative to control; format: functional
[18] = tested on: RPMI-8226; assay: Anticancer activity against human RPMI-8226 cells assessed as growth inhibition measured after 48 hrs by SRB assay relative to control; format: functional
[19] = tested on: CCRF-CEM; assay: Anticancer activity against human CCRF-CEM cells assessed as growth inhibition measured after 48 hrs by SRB assay relative to control; format: functional
[20] = tested on: BV-2; assay: Anti-inflammatory activity against mouse BV-2 cells assessed as inhibition of LPS-induced NO production at 40 uM pretreated for 2 hrs followed stimulated with LPS for 22 hrs by Griess reaction assay relative to control; format: functional; settings: time 24 hrs
[21] = Cytotoxicity against mouse RAW264.7 cells assessed as macrophage viability at 40 uM relative to control; format: toxicity, cell-based; settings: read-out: Activity

Compound `COc1cccc(NC(=O)c2cccc(C3CC(=O)c4c(cc(OC)c(OC)c4OC)O3)c2)c1` (racemic) has an inhibition at 10 µM [1] of 21.9% and a viability at 10 µM [2] of 112%.
In the case of `COc1cc2c(c(OC)c1OC)C(=O)CC(c1cccc(NC(=O)c3ccc([N+](=O)[O-])cc3)c1)O2` (racemic), the inhibition at 10 µM [3] is reported as 54.6%, the inhibition of growth at 10 µM [4] is reported as 75.6% and the inhibition of growth at 10 µM [5] is reported as 84.2%. For the same compound, the IC50 [6] was 19.8 µM, the inhibition of growth at 10 µM [7] was 66.6% and the inhibition at 10 µM [1] was 35.8%. For the same compound, the viability at 10 µM [2] was 104%, the inhibition of growth at 10 µM [8] was 73.8% and the Activity ([9]; time 24.0 hrs) was “Dose-Dependent Effect”. It also gave an IC50 [10] of 9.8 µM, an inhibition of growth at 10 µM [11] of 64.6% and an inhibition at 10 µM [12] of 51.6%.
In the case of `COc1cc2c(c(OC)c1OC)C(=O)CC(c1cccc(C(=O)Nc3ccccc3Br)c1)O2` (racemic), the inhibition at 10 µM [1] is reported as 9.4% and the viability at 10 µM [2] is reported as 101%.
Work on `COc1cc2c(c(OC)c1OC)C(=O)CC(c1cccc(NC(=O)c3ccccc3)c1)O2` (racemic) yielded an inhibition at 10 µM [1] of 23.5% and a viability at 10 µM [2] of 97%.
Compound `COc1cccc(C(=O)Nc2cccc(C3CC(=O)c4c(cc(OC)c(OC)c4OC)O3)c2)c1` (racemic) has an inhibition at 10 µM [1] of 32.1% and a viability at 10 µM [2] of 98%.
`COc1cc2c(c(OC)c1OC)C(=O)CC(c1cccc(C(=O)Nc3ccncc3)c1)O2` (racemic) showed an inhibition at 10 µM [1] of 16% and a viability at 10 µM [2] of 91.3%.
With `COc1ccccc1NC(=O)c1cccc(C2CC(=O)c3c(cc(OC)c(OC)c3OC)O2)c1` (racemic) the inhibition at 10 µM [1] was 19.7% and the viability at 10 µM [2] was 103%.
With `COc1cc2c(c(OC)c1OC)C(=O)CC(c1cccc(C(=O)Nc3cccc(Cl)c3)c1)O2` (racemic) the inhibition at 10 µM [1] was 24.6% and the viability at 10 µM [2] was 93.9%.
`COc1cc2c(c(OC)c1OC)C(=O)CC(c1cccc(C(=O)Nc3cccc(F)c3)c1)O2` (racemic) gave an inhibition at 10 µM [1] of 25.8% and a viability at 10 µM [2] of 110%.
`COc1cc2c(c(OC)c1OC)C(=O)CC(c1cccc(C(=O)Nc3ccc(C#N)cc3)c1)O2` (racemic) gave an inhibition at 10 µM [1] of 21.2% and a viability at 10 µM [2] of 122%.
`COc1ccc(NC(=O)c2cccc(C3CC(=O)c4c(cc(OC)c(OC)c4OC)O3)c2)cc1` (racemic) gave an inhibition at 10 µM [1] of 28.6% and a viability at 10 µM [2] of 111%.
Work on `COc1cc2c(c(OC)c1OC)C(=O)CC(c1cccc(C(=O)Nc3ccccc3)c1)O2` (racemic) yielded an inhibition at 10 µM [1] of 24.2% and a viability at 10 µM [2] of 110%.
`COc1cc2c(c(OC)c1OC)C(=O)CC(c1cccc(NC(=O)c3ccccc3Br)c1)O2` (racemic) gave an inhibition at 10 µM [3] of 62.4%, an inhibition of growth at 10 µM [4] of 26.9% and an inhibition of growth at 10 µM [5] of 30.4%. The IC50 [6] was 13.3 µM, the inhibition of growth at 10 µM [7] was 41.8% and the inhibition at 10 µM [1] was 41.4%. For the same compound, the viability at 10 µM [2] was 101%, the inhibition of growth at 10 µM [8] was 31.6% and the IC50 [9] was 7.3 µM. It also gave an inhibition of growth at 10 µM [11] of 29.8% and an inhibition at 10 µM [12] of 39%.
Work on `COc1cc2c(c(OC)c1OC)C(=O)CC(c1cccc(C(=O)Nc3ccc(Br)cc3)c1)O2` (racemic) yielded an inhibition at 10 µM [3] of 24.9%, an inhibition of growth at 10 µM [4] of 90.7% and an inhibition of growth at 10 µM [5] of 101%. For the same compound, the IC50 [6] was 13.1 µM, the inhibition of growth at 10 µM [13] was 86.3% and the inhibition of growth at 10 µM [7] was 85.4%. The inhibition at 10 µM [1] was 41.2%, the viability at 10 µM [2] was 113% and the inhibition of growth at 10 µM [8] was 77.8%. The IC50 [9] was 16.8 µM, the IC50 [10] was 10.3 µM and the inhibition of growth at 10 µM [11] was 93.8%. For the same compound, the inhibition at 10 µM [12] was 62.6%.
For `COc1cccc(CNC(=O)c2cccc(C3CC(=O)c4c(cc(OC)c(OC)c4OC)O3)c2)c1` (racemic), the inhibition at 10 µM [1] was 24.7% and the viability at 10 µM [2] was 107%.
With `COc1cc2c(c(OC)c1OC)C(=O)CC(c1cccc(NC(=O)c3ccc(C#N)cc3)c1)O2` (racemic) the inhibition at 10 µM [1] was 26.8% and the viability at 10 µM [2] was 115%.
Work on `COc1cc2c(c(OC)c1OC)C(=O)CC(c1cccc(C(=O)Nc3cccc(Br)c3)c1)O2` (racemic) yielded an inhibition at 10 µM [3] of 39.5%, an inhibition of growth at 10 µM [4] of 55% and an inhibition of growth at 10 µM [5] of 51.2%. It also gave an IC50 [6] of 11.7 µM, an inhibition of growth at 10 µM [13] of 8.2% and an inhibition of growth at 10 µM [7] of 53.2%. For the same compound, the inhibition at 10 µM [1] was 46.3%, the viability at 10 µM [2] was 97.9% and the IC50 [9] was 15.5 µM. The IC50 [10] was 10.9 µM, the inhibition of growth at 10 µM [11] was 50.2% and the inhibition at 10 µM [12] was 19.8%.
`COc1cc2c(c(OC)c1OC)C(=O)CC(c1cccc(C(=O)Nc3cccc([N+](=O)[O-])c3)c1)O2` (racemic) gave an inhibition of growth at 10 µM [4] of 89.7%, an inhibition of growth at 10 µM [5] of 77.2% and an IC50 [6] of 14.7 µM. It also gave an inhibition of growth at 10 µM [13] of 49.4%, an inhibition of growth at 10 µM [7] of 82.7% and an inhibition at 10 µM [1] of 42.7%. The viability at 10 µM [2] was 111%, the inhibition of growth at 10 µM [8] was 66.2% and the IC50 [9] was > 20 µM. The IC50 [10] was 10.7 µM, the inhibition of growth at 10 µM [11] was 63.5% and the inhibition at 10 µM [12] was 31.4%.
For `COc1ccc(C(=O)Nc2cccc(C3CC(=O)c4c(cc(OC)c(OC)c4OC)O3)c2)cc1` (racemic), the inhibition at 10 µM [1] was 15.2% and the viability at 10 µM [2] was 102%.
For `COc1cc2c(c(OC)c1OC)C(=O)CC(c1cccc(NC(=O)c3cccc(Cl)c3)c1)O2` (racemic), the inhibition at 10 µM [1] was 32.3% and the viability at 10 µM [2] was 100%.
`COc1cc2c(c(OC)c1OC)C(=O)CC(c1cccc(NC(=O)c3cccc(Br)c3)c1)O2` (racemic) gave an inhibition at 10 µM [1] of 14.2% and a viability at 10 µM [2] of 105%.
With `COc1cc2c(c(OC)c1OC)C(=O)CC(c1cccc(C(=O)Nc3cccnc3)c1)O2` (racemic) the inhibition at 10 µM [1] was 10.5% and the viability at 10 µM [2] was 109%.
For `COc1ccccc1C(=O)Nc1cccc(C2CC(=O)c3c(cc(OC)c(OC)c3OC)O2)c1` (racemic), the inhibition at 10 µM [1] was 14.3% and the viability at 10 µM [2] was 103%.
In the case of `Cc1ccc(NC(=O)c2ccc(CN3CCN(C)CC3)cc2)cc1Nc1nccc(-c2cccnc2)n1` [IMATINIB], the inhibition of growth at 10 µM [4] is reported as 6.6%, the inhibition of growth at 10 µM [5] is reported as 18% and the “growth inhibition (GI)” value [13] is reported as “inactive”. The GI50 [14] was 13.5 µM, the GI50 [15] was 7.24 µM and the inhibition of growth at 10 µM [7] was 12.6%. The GI50 [16] was 5.13 µM, the GI50 [17] was 0.05 µM and the inhibition of growth at 10 µM [8] was 14.6%. The GI50 [18] was 6.17 µM and the GI50 [19] was 17 µM.
`CC(=N)NCCCC[C@H](N)C(=O)O` [L-NIL] showed an inhibition at 40 µM [20] of 54.3% and a viability at 40 µM [21] of 106%.
